From patent US20250269091A1, “UTILIZATION OF ELECTROPHORETIC DEPOSITION TO COAT MEDICAL IMPLANTS WITH THERAPEUTIC AGENTS IN A STERILE CLINICAL SETTING” (Rush University Medical Center, priority 2022, published 2025)

What was measured:
S. aureus = conditions: 4 ml of 1×10^5 CFU/ml S. aureus, 24 hours
Description: A gentamicin-loaded chitosan-coated wire was placed in one tube (loaded wire, LW). 0.25 mg gentamicin was added to the second tube (antibiotic control, AC). The third tube contained bacteria only and served as growth control (GC). The tubes were incubated for 24 hours, and the absorbance of the solutions was measured with a spectrophotometer in each tube.

S. aureus Xen36 = assay: Minimal inhibitory concentration by broth dilution method; type: cell-based, Staphylococcus aureus; conditions: against S. aureus Xen36, broth dilution
Description: FIGS. 17-20 show tests of the titanium rod of FIG. 3 against Staphylococcus aureus by agar dilution and liquid culture methods. To determine the antimicrobial activity of the loaded wires, S. aureus (Xen36, derived from ATCC 49525) bacteria were cultured overnight at 37° C. in Luria-Bertani medium. The minimal inhibitory concentration of gentamicin was determined by the broth dilution method. In the agar diffusion test, 100 μl of 1×10^6 colony forming units/ml S. aureus solution was inoculated on agar plates and dried. […] The inhibition zones (IZ) 1708, 1710 around the components were measured following 24 hours incubation at 37° C.
In the agar diffusion assay, an elliptical shaped IZ 1708 formed around the loaded wire 1702 (35 mm shorter and 45 mm longer axis).

[1] = Gentamicin release from titanium nanotubes, fractional volume sampling; type: physicochemical
Description: FIG. 13 illustrates a line graph showing the amount of gentamicin 2300 released from a titanium surface per hour 2400 after a two-step EPD process, as described above. […] Fractional volume sampling was carried out for 3 days. FIG. 15 illustrates the gentamicin concentration in the release solution, and FIG. 16 represents the cumulative release of gentamicin. An initial burst release was observed of around 78% in the first 10 minutes, then gentamicin was released at a slower rate up to 3 days.

gentamicin
bacterial density (absorbance) compared to growth control (S. aureus): significantly decreased bacterial density | MIC (S. aureus Xen36): 3.6 µg/mL | duration of slower release of gentamicin ([1]; after the initial burst): up to 3 days | drug concentration in release solution relative to MIC ([1]; entire period tested (3 days)): stayed above the determined minimum inhibitory concentration (MIC) | initial burst release of gentamicin ([1]; first 10 minutes, titanium nanotube surface after two-step EPD with gentamicin and chitosan): around 78% | cumulative amount of gentamicin detected ([1]; release over 3 days, titanium nanotube surface after two-step EPD): 400 to 550 µg
